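Exposure lasted 48 hours, with cells grown in 96-well plates and compounds tested at five concentrations. At the GI50, growth is halved.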 The source made the active and inactive calls. No stated cut-off is given here; in the data, active = GI50 up to about 1.1 µM and inactive = higher. Where a SMILES comes first, the peptide text is derived from it. [ ]: non-standard residue; d: D form. The star is where a group is joined. Hyp = O=C(O)[CH]1C[CH](O)CN1; Cbz = O=C(OCc1ccccc1)*
Legend:
Test in all cases: NCI tumour cell line growth inhibition, 48 h
A498 = system: A498
HCC 2998 = system: HCC 2998
HCT-116 = system: HCT-116
HOP-62 = system: HOP-62
MCF7 = system: MCF7
MDA-MB-231 = system: MDA-MB-231
MDA-MB-435 = system: MDA-MB-435
Malme-3M = system: Malme-3M
NCI-H460 = system: NCI-H460
NCI-H522 = system: NCI-H522
NCI/ADR-RES = system: NCI/ADR-RES
OVCAR-5 = system: OVCAR-5
PC-3 = system: PC-3
SF-268 = system: SF-268
SK-MEL-28 = system: SK-MEL-28
SNB-19 = system: SNB-19
UO-31 = system: UO-31
NCI-H23 = system: NCI-H23
SF-539 = system: SF-539
HOP-92 = system: HOP-92

Measured: GI50

O=c1[nH]nc(-c2ccccc2)n1-n1cccc1
inactive: A498 > 100 µM | HCC 2998 > 100 µM | HCT-116 > 100 µM | HOP-62 > 100 µM | MCF7 > 100 µM | MDA-MB-231 > 100 µM | MDA-MB-435 > 100 µM | Malme-3M > 100 µM | NCI-H460 > 100 µM | NCI-H522 > 100 µM | NCI/ADR-RES > 100 µM | OVCAR-5 > 100 µM | PC-3 > 100 µM | SF-268 > 100 µM | SK-MEL-28 > 100 µM | SNB-19 > 100 µM | UO-31 > 100 µM

O=[N+]([O-])/C(C(Cl)=C(Cl)Cl)=C(\Nc1cccc2ccccc12)Sc1ccccc1
inactive: A498 11 µM | HCC 2998 17.8 µM | HCT-116 15 µM | HOP-62 23.9 µM | MCF7 12.6 µM | MDA-MB-231 11.3 µM | MDA-MB-435 13.8 µM | Malme-3M 17.5 µM | NCI-H23 16 µM | NCI-H460 19.8 µM | NCI/ADR-RES 15.2 µM | OVCAR-5 20.3 µM | PC-3 13.5 µM | SF-268 12.9 µM | SF-539 19.3 µM | SK-MEL-28 18.7 µM | SNB-19 18.8 µM | UO-31 16 µM

Nc1c(C(=O)O)c2ccc([N+](=O)[O-])cc2c(=O)n1-c1nc2ccccc2s1
inactive: A498 > 100 µM | HCC 2998 > 100 µM | HCT-116 > 100 µM | HOP-62 > 100 µM | MCF7 > 100 µM | MDA-MB-231 > 100 µM | MDA-MB-435 > 100 µM | Malme-3M > 100 µM | NCI-H23 > 100 µM | NCI-H460 > 100 µM | NCI-H522 > 100 µM | NCI/ADR-RES > 100 µM | OVCAR-5 > 100 µM | PC-3 > 100 µM | SF-268 > 100 µM | SK-MEL-28 > 100 µM | SNB-19 > 100 µM | UO-31 > 100 µM

CCOC(=O)c1ccc(/N=N/N(C)C(=O)C(C)N)cc1 (centres undefined)
inactive: HCC 2998 > 100 µM | HCT-116 > 100 µM | HOP-62 > 100 µM | HOP-92 46.7 µM | MCF7 > 100 µM | MDA-MB-231 > 100 µM | MDA-MB-435 56.8 µM | Malme-3M > 100 µM | NCI-H23 > 100 µM | NCI-H460 16.7 µM | NCI-H522 86.5 µM | NCI/ADR-RES > 100 µM | OVCAR-5 > 100 µM | PC-3 > 100 µM | SF-268 > 100 µM | SF-539 > 100 µM | SK-MEL-28 > 100 µM | SNB-19 > 100 µM | UO-31 88.7 µM

CC(C)(C)[Si](C)(C)OCC1CCC(n2cnc3c(=O)[nH]cnc32)O1 (centres undefined)
inactive: HCC 2998 > 100 µM | HCT-116 > 100 µM | HOP-62 > 100 µM | HOP-92 > 100 µM | MCF7 > 100 µM | MDA-MB-231 > 100 µM | MDA-MB-435 > 100 µM | Malme-3M 78.9 µM | NCI-H23 > 100 µM | NCI-H460 > 100 µM | NCI-H522 > 100 µM | NCI/ADR-RES 45.6 µM | OVCAR-5 > 100 µM | PC-3 > 100 µM | SF-268 > 100 µM | SF-539 > 100 µM | SK-MEL-28 > 100 µM | SNB-19 > 100 µM | UO-31 > 100 µM

NC(=O)CNC(=O)C1CC(O)CN1C(=O)C1CCCN1C(=O)OCc1ccccc1 (stereo not drawn) (Cbz-Pro-[Hyp]-Gly-NH2; configuration not given here)
inactive: A498 > 100 µM | HCC 2998 > 100 µM | HCT-116 > 100 µM | HOP-62 > 100 µM | MCF7 > 100 µM | MDA-MB-231 > 100 µM | MDA-MB-435 > 100 µM | Malme-3M > 100 µM | NCI-H23 > 100 µM | NCI-H460 > 100 µM | NCI-H522 > 100 µM | NCI/ADR-RES > 100 µM | OVCAR-5 > 100 µM | PC-3 > 100 µM | SF-268 > 100 µM | SK-MEL-28 > 100 µM | SNB-19 > 100 µM | UO-31 > 100 µM

— ChEMBL document CHEMBL1201862, “PubChem BioAssay data set” (2004)
